The values that follow come from patent US20230382950A1 (priority 2020, published 2023).

Where two headings read alike, the source gives them in different places. *1 amine or outer side, *2 acyl side, *3 side chain or, on linkers, in order; H or OH if unused. Where a SMILES comes first, the peptide text is derived from it. Bridges are numbered along the chain shown (N, C = ends). [ ]: non-standard residue; d: D form. The star is where a group is joined. Ala(piperidin-4-yl) = O=C([C@H](CC1CCN([*:3])CC1)N[*:1])[*:2]; Malonyl(2,2-Me2,histaminyl) = CC(C)(C(=O)NCCc1cnc[nH]1)C(=O)*; dBip = N[C@H](Cc1ccc(-c2ccccc2)cc1)C(=O)O; Oic = O=C(O)[C@@H]1C[C@@H]2CCCC[C@@H]2N1; Phe(4-Br) = N[C@@H](Cc1ccc(Br)cc1)C(=O)O; hArg = N=C(N)NCCCC[C@H](N)C(=O)O; Pip = O=C(O)[C@@H]1CCCCN1; Nle = CCCC[C@H](N)C(=O)O Bounds are passed on as bounds.

The target of test [1] is T1, human Apelin receptor (Homo sapiens, UniProt P35414).
T1 sequence (P35414 1-380): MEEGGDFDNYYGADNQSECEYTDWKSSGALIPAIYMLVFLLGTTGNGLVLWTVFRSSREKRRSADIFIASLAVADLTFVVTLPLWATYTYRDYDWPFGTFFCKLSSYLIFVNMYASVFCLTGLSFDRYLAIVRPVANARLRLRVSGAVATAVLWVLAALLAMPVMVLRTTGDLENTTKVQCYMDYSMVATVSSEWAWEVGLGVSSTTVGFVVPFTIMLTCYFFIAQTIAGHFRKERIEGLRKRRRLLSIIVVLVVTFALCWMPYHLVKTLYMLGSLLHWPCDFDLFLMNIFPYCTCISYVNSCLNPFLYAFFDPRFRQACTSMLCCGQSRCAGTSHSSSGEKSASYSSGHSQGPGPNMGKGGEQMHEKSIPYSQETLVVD
The test is described as follows: β-arrestin accumulation assay, CHO-K1 cells overexpressing human Apelin receptor and β-arrestin (DiscoverRx). The test is classed as cell-based. The arrangement: host or cells: CHO-K1 cells. The procedure: β-arrestin assay. […] After 16 h incubation at 37° C. media was removed and cells were incubated at 37° C. for 90 min in serum free media containing increasing concentrations of test agonist. The assay reaction was stopped by adding detection reagent (DiscoveRx) and incubation for 60 min in the dark. Levels of receptor activation were then measured on a PheraStar fluorescence plate reader (BMG LabTech) and EC50 values were determined using Graphpad Prism.

Test [2] concerns the target T1, human Apelin receptor. Description: cAMP accumulation assay (HTRF), functional agonism, CHO cells stably expressing the human Apelin receptor. Format: cell-based. Conditions: for Emax: CHO. From the text:
cAMP functional assay. cAMP production was quantified using the Homogeneous Time-Resolved Fluorescence (HTRF) cAMP dynamic-2 assay (Cisbio, France).

The term Emax denotes the maximal effect, on the per cent scale that the assay sets.

As for `CCCC[C@H](NC(=O)[C@@H]1C[C@@H]2CCCC[C@@H]2N1C(=O)[C@@H]1CCCCNC(=O)CC[C@H](NC(=O)[C@H](CC(C)C)NC(=O)[C@@H](CCCNC(=N)N)NC(=O)[C@@H]2CCCCN2C(=O)[C@H](CCCCNC(=N)N)NC(=O)[C@H](CCC(N)=O)NC(=O)[C@@H](CCCNC(=N)N)NC(=O)C(C)(C)C(=O)NCCc2c[nH]cn2)C(=O)N[C@@H](Cc2c[nH]cn2)C(=O)N[C@@H](CC2CCNCC2)C(=O)N1)C(=O)N1CCC[C@H]1C(=O)N[C@H](Cc1ccc(-c2ccccc2)cc1)C(=O)O` [Example 2] ({Malonyl(2,2-Me2,histaminyl)}-[dR]Q[hArg][Pip][dR]LEH[Ala(piperidin-4-yl)]K[Oic][Nle]P[dBip]-OH; lactam 7-10), the EC50 on human Apelin receptor [1] is over 10000 nM; on human Apelin receptor [2] it was 15.8 nM. Besides, the Emax on human Apelin receptor [2] is 31.2%.

With `CCCC[C@H](NC(=O)[C@@H]1C[C@@H]2CCCC[C@@H]2N1C(=O)[C@@H]1CCCCNC(=O)CC[C@H](NC(=O)[C@H](CC(C)C)NC(=O)[C@@H](CCCNC(=N)N)NC(=O)[C@@H]2CCCCN2C(=O)[C@H](CCCCNC(=N)N)NC(=O)[C@H](CCC(N)=O)NC(=O)[C@@H](CCCNC(=N)N)NC(=O)C(C)(C)C(=O)NCCc2c[nH]cn2)C(=O)N[C@@H](Cc2ccc(Br)cc2)C(=O)N[C@@H](CC2CCNCC2)C(=O)N1)C(=O)N1CCC[C@H]1C(=O)N[C@H](Cc1ccc(-c2ccccc2)cc1)C(=O)O` [Example 4] ({Malonyl(2,2-Me2,histaminyl)}-[dR]Q[hArg][Pip][dR]LE[Phe(4-Br)][Ala(piperidin-4-yl)]K[Oic][Nle]P[dBip]-OH; lactam 7-10), the EC50 on human Apelin receptor [1] (read-out: pEC50 (converted)) is over 10000 nM; on human Apelin receptor [2] (read-out: pEC50 (converted)) it was 100 nM. Also, the Emax on human Apelin receptor [2] (read-out: Emax) turned out to be 28.4%.

The compound `CC(C)C[C@H](NC(=O)[C@@H](CCCNC(=N)N)NC(=O)[C@@H]1CCCCN1C(=O)[C@H](CCCCNC(=N)N)NC(=O)[C@H](CCC(N)=O)NC(=O)[C@@H](CCCNC(=N)N)NC(=O)C(C)(C)C(=O)NCCc1c[nH]cn1)C(=O)N[C@H]1CCC(=O)NCCCC[C@@H](C(=O)N2[C@H](C(=O)N[C@@H](Cc3ccc(Br)cc3)C(=O)N3CCC[C@H]3C(=O)N[C@H](Cc3ccc(-c4ccccc4)cc3)C(=O)O)C[C@@H]3CCCC[C@@H]32)NC(=O)[C@H](CC2CCNCC2)NC(=O)[C@H](Cc2c[nH]cn2)NC1=O` [Example 1] ({Malonyl(2,2-Me2,histaminyl)}-[dR]Q[hArg][Pip][dR]LEH[Ala(piperidin-4-yl)]K[Oic][Phe(4-Br)]P[dBip]-OH; lactam 7-10) displayed an EC50 on human Apelin receptor [1] of over 10000 nM. Also, at human Apelin receptor [2], the EC50 is 3.16 nM and the Emax was determined as 70.5%.

On to `CC(C)C[C@H](NC(=O)[C@@H](CCCNC(=N)N)NC(=O)[C@@H]1CCCCN1C(=O)[C@H](CCCCNC(=N)N)NC(=O)[C@H](CCC(N)=O)NC(=O)C(C)(C)C(=O)NCCc1c[nH]cn1)C(=O)N[C@H]1CCC(=O)NCCCC[C@@H](C(=O)N2[C@H](C(=O)N[C@@H](Cc3ccc(Br)cc3)C(=O)N3CCC[C@H]3C(=O)N[C@H](Cc3ccc(-c4ccccc4)cc3)C(=O)O)C[C@@H]3CCCC[C@@H]32)NC(=O)[C@H](CC2CCNCC2)NC(=O)[C@H](Cc2c[nH]cn2)NC1=O` [Example 5] ({Malonyl(2,2-Me2,histaminyl)}-Q[hArg][Pip][dR]LEH[Ala(piperidin-4-yl)]K[Oic][Phe(4-Br)]P[dBip]-OH; lactam 6-9), for which the EC50 at human Apelin receptor [1] (read-out: pEC50 (converted)) was over 10000 nM; at human Apelin receptor [2] (read-out: pEC50 (converted)), 5.01 nM. In addition, the Emax on human Apelin receptor [2] (read-out: Emax) was 48.2%.

As to `CC(C)C[C@@H]1NC(=O)[C@@H](CCCNC(=N)N)NC(=O)[C@@H](NC(=O)[C@H](CCCCNC(=N)N)NC(=O)[C@H](CCC(N)=O)NC(=O)C(C)(C)C(=O)NCCc2c[nH]cn2)CC(=O)NCCCC[C@@H](C(=O)N[C@@H](CC2CCNCC2)C(=O)NCC(=O)N2[C@H](C(=O)N[C@@H](Cc3ccc(Br)cc3)C(=O)N3CCC[C@H]3C(=O)N[C@H](Cc3ccc(-c4ccccc4)cc3)C(=O)O)C[C@@H]3CCCC[C@@H]32)NC(=O)CNC1=O` [Example 6] ({Malonyl(2,2-Me2,histaminyl)}-Q[hArg]D[dR]LGK[Ala(piperidin-4-yl)]G[Oic][Phe(4-Br)]P[dBip]-OH; lactam 3-7), the values for the EC50 at human Apelin receptor [1] and on human Apelin receptor [2] were over 100000 nM and 12.6 nM, respectively. Besides, on human Apelin receptor [2], the Emax is 30.5%.
